Test results: patent US20180284095A1, “BIOMARKERS ASSOCIATED WITH LSD1 INHIBITORS AND USES THEREOF” (Oryzon Genomics, S.A., priority 2015, published 2018)

What was measured:
[1] = tested on: S100A8; test: Microarray gene expression in brain, spleen and liver of Hsd:Athymic Nude-Foxn1nu mice (Example 7); assay type: in vivo, mouse
Method: (§1) Total RNA was extracted from samples using the RNeasy extraction kit (Qiagen). The quality and concentration of the RNA was analyzed using the Agilent 2100 bioanalyzer and NanoDrop™ ND-1000 (Thermo Scientific). Samples with RNA integrity number (RIN)<6.0 were discarded. Total RNA (0.5 μg) amplification and labelling with Cy3 or Cy5 was carried out using the Eberwein mRNA amplification procedure (Van Gelder et al, Proc Natl Acad Sci USA 1990, 87:1663-1667) employing the MessageAmp™ aRNA amplification kit from Ambion (Applied Biosystems) following the manufacturer's instructions with minor modifications. As hybridization controls, plant mRNAs were transcribed from a plasmid containing the Zea mays Xet (xyloglucan endo-transglycosylase) cDNA and from a plasmid containing the Zea mays Zmmyb42 cDNA, independently prepared Cy3 and Cy5 labelled aRNA from these two RNAs using the Eberwein mRNA amplification procedure (as disclosed in Cerdà et al, Gen Comp Endocrinol 2008, 156:470-481).
(§2) The Cy3- and Cy5-labelled cRNAs and spikes were combined and hybridized to the microarray described in Example 2.6 for 17 h at 60° C. using Agilent's gaskets G2534-60002, G2534A hybridization chambers and DNA Hybridization Oven G2545A, according to the manufacturer's instructions. More specifically, equal amounts of Cy3 and Cy5 labeled Xet aRNA as well as equal amounts of Cy3 and Cy5 labeled Zmmyb42 aRNA were spiked into each mixture hybridized to the array. Arrays were washed and raw data were obtained using Agilent's DNA Microarray Scanner G2505B and Feature Extraction software (v10.1). The raw fluorescence intensity data were processed using applicant's proprietary software, and consists in the following operations:
(§3) Data normalization was carried out by an improved version of the nonlinear Q-splines normalization method (Workman et al., Genome Biol 2002, 3(9):research0048.1-0048.16). Normalization results were presented graphically as MA plots, as first described by Dudoit et al (Dudoit et al, Statistica Sinica, 2002, 12:111-139). Each point corresponds to a probe of the DNA array. M values (vertical axis) are the log-differential expression ratios. A values (horizontal axis) are the log-intensities of the spots. M and A are calculated from the Cy5 and Cy3 intensity values as of each spot. The DNA Array data is normalized using an improved version of non-linear Q-Splines normalization described by Workman et al., Genome Biol 2002, 3(9):research0048.1-0048.16. This process is useful to correct the deviation of the M values from the statistical assumption that most of the spots have M=0 in MA plots. The method allows the adjustment of all M values to form a cloud centered at M=0 in all intensity ranges. The data used to calculate the normalization fitting curve is the totality of the raw measurement dataset, excluding the signals for the probes for the spiked-in plant RNA controls and negative controls. In order to be able to normalize properly the data among all the experiments, the probe-set must include an important group of genes that should have no change (M=0) in the experiment. The normalization function is then applied to all the data, including controls.
(§4) Normalized and log-transformed data were used to calculate log 2 (sample/control) and Fold Change (FC) values. No background subtraction was applied to the signal intensity values during data processing, permitting robust selection of differentially expressed genes with low expression levels at the cost of potential sub-estimation of change when intensity levels are close to the array background level.
(§5) Powered Compound 3, 4 or 5 was dissolved in a 20% solution of 2-hydroxypropyl-R-cyclodextrin in water at the appropriate concentrations, vortexed and placed in an ultrasonic bath for 5 minutes.
(§6) Hsd:Athymic Nude-Foxn1nu mice were maintained in air- and temperature-controlled cages with regular supply of water and food. A maximum of 6 mice/cage were raised. […]

[2] = tested on: S100A9; test: as above; assay type: in vivo, mouse
Method: as §1, §2, §3, §4, §5, §6

NC(=O)CN[C@H]1C[C@@H]1c1ccc(OCc2ccccc2)cc1 (racemic) [Compound 3, 2-(((trans)-2-(4-(benzyloxy)phenyl)cyclopropyl)amino)acetamide]
Hybridization signal sample_Cy5 ([1]; BRAIN, S100A8, 5 mg/kg): 229.714 | log2 (sample/control) ([1]; BRAIN, S100A8, 5 mg/kg vs VEH): −0.116 | Hybridization signal sample_Cy5 ([1]; BRAIN, S100A8, 10 mg/kg): 185.235 | log2 (sample/control) ([1]; BRAIN, S100A8, 10 mg/kg vs VEH): −0.3304 | Hybridization signal sample_Cy5 ([1]; BRAIN, S100A8, 20 mg/kg): 108.854 | log2 (sample/control) ([1]; BRAIN, S100A8, 20 mg/kg vs VEH): −1.218 | Hybridization signal sample_Cy5 ([1]; BRAIN, S100A8, 40 mg/kg): 89.5415 | log2 (sample/control) ([1]; BRAIN, S100A8, 40 mg/kg vs VEH): −1.598 | Hybridization signal sample_Cy5 ([1]; LIVER, S100A8, 5 mg/kg): 250.202 | log2 (sample/control) ([1]; LIVER, S100A8, 5 mg/kg vs VEH): −1.371 | Hybridization signal sample_Cy5 ([1]; LIVER, S100A8, 10 mg/kg): 280.387 | log2 (sample/control) ([1]; LIVER, S100A8, 10 mg/kg vs VEH): −1.1185 | Hybridization signal sample_Cy5 ([1]; LIVER, S100A8, 20 mg/kg): 266.01 | log2 (sample/control) ([1]; LIVER, S100A8, 20 mg/kg vs VEH): −1.318 | Hybridization signal sample_Cy5 ([1]; LIVER, S100A8, 40 mg/kg): 161.23 | log2 (sample/control) ([1]; LIVER, S100A8, 40 mg/kg vs VEH): −2.177 | Hybridization signal sample_Cy5 ([1]; SPLEEN, S100A8, 5 mg/kg): 4533.52 | log2 (sample/control) ([1]; SPLEEN, S100A8, 5 mg/kg vs VEH): −1.181 | Hybridization signal sample_Cy5 ([1]; SPLEEN, S100A8, 10 mg/kg): 6342.81 | log2 (sample/control) ([1]; SPLEEN, S100A8, 10 mg/kg vs VEH): −0.4706 | Hybridization signal sample_Cy5 ([1]; SPLEEN, S100A8, 20 mg/kg): 7014.94 | log2 (sample/control) ([1]; SPLEEN, S100A8, 20 mg/kg vs VEH): −0.5296 | Hybridization signal sample_Cy5 ([1]; SPLEEN, S100A8, 40 mg/kg): 4802.3 | log2 (sample/control) ([1]; SPLEEN, S100A8, 40 mg/kg vs VEH): −1.65 | Hybridization signal sample_Cy5 ([2]; BRAIN, S100A9, 5 mg/kg): 756.846 | log2 (sample/control) ([2]; BRAIN, S100A9, 5 mg/kg vs VEH): 0.1106 | Hybridization signal sample_Cy5 ([2]; BRAIN, S100A9, 10 mg/kg): 465.025 | log2 (sample/control) ([2]; BRAIN, S100A9, 10 mg/kg vs VEH): −0.5589 | Hybridization signal sample_Cy5 ([2]; BRAIN, S100A9, 20 mg/kg): 268.93 | log2 (sample/control) ([2]; BRAIN, S100A9, 20 mg/kg vs VEH): −1.388 | Hybridization signal sample_Cy5 ([2]; BRAIN, S100A9, 40 mg/kg): 208.488 | log2 (sample/control) ([2]; BRAIN, S100A9, 40 mg/kg vs VEH): −1.798 | Hybridization signal sample_Cy5 ([2]; LIVER, S100A9, 5 mg/kg): 820.026 | log2 (sample/control) ([2]; LIVER, S100A9, 5 mg/kg vs VEH): −1.469 | Hybridization signal sample_Cy5 ([2]; LIVER, S100A9, 10 mg/kg): 841.06 | log2 (sample/control) ([2]; LIVER, S100A9, 10 mg/kg vs VEH): −1.41 | Hybridization signal sample_Cy5 ([2]; LIVER, S100A9, 20 mg/kg): 862.896 | log2 (sample/control) ([2]; LIVER, S100A9, 20 mg/kg vs VEH): −1.44 | Hybridization signal sample_Cy5 ([2]; LIVER, S100A9, 40 mg/kg): 412.209 | log2 (sample/control) ([2]; LIVER, S100A9, 40 mg/kg vs VEH): −2.571 | Hybridization signal sample_Cy5 ([2]; SPLEEN, S100A9, 5 mg/kg): 10802.4 | log2 (sample/control) ([2]; SPLEEN, S100A9, 5 mg/kg vs VEH): −1.213 | Hybridization signal sample_Cy5 ([2]; SPLEEN, S100A9, 10 mg/kg): 15182.8 | log2 (sample/control) ([2]; SPLEEN, S100A9, 10 mg/kg vs VEH): −0.5812 | Hybridization signal sample_Cy5 ([2]; SPLEEN, S100A9, 20 mg/kg): 15717.4 | log2 (sample/control) ([2]; SPLEEN, S100A9, 20 mg/kg vs VEH): −0.5179 | Hybridization signal sample_Cy5 ([2]; SPLEEN, S100A9, 40 mg/kg): 13461.8 | log2 (sample/control) ([2]; SPLEEN, S100A9, 40 mg/kg vs VEH): −1.719
